# Experimental data as given in publication doi:10.1101/2025.08.06.668955, “High-Affinity, Structure-Validated and Selective Macrocyclic Peptide Tools for Chemical Biology Studies of Huntingtin” (bioRxiv, 2025).
# Where a SMILES comes first, the peptide text is derived from it. Bridges are numbered along the chain shown (N, C = ends).
# How the values were obtained:
# [1] = biological target: T1, HTTQ54 (Homo sapiens, UniProt P42858, INS38QQQQQQQQQQQQQQQQQQQQQQQQQQQQQQQQQ); test: Thermal shift assay (DSF), HTTQ54; format: binding; conditions: SYPRO Orange, 0.25 mg/mL protein, macrocycle up to 10 μM, 2.5% DMSO, n=3
# T1 construct: FLAG; made in house; host or cells: Sf9 insect cells (baculovirus)
# Method: (§1) In an Axygen® 384-well PCR microplate (REF# PCR-384-LC480-W-NF, Corning), samples were mixed to yield a final concentration of 0.25 mg/mL Q54 or Q23/HAP40, a 5-pt 2-fold serial dilution of each macrocycle (top concentration of 10 μM, 2.5% DMSO), and 5X SYPRO™ Orange (CAT# S6650, Thermo Fisher Scientific) in buffer (20 mM HEPES pH 7.4, 150 mM NaCl, 1 mM TCEP, 0.005% Tween-20). Differential Scanning Fluorimetry (DSF) was performed using a LightCycler® 480 (Roche LifeSciences) set to a 4 °C/min temperature ramp (20–95 °C) and fluorescence detection at 580 nm. Melting temperatures (Tm) were obtained from the minima of the negative derivative of each curve. The propagated error of the thermal shift (ΔTm) was calculated from the standard deviation of each Tm mean (n=3). To ensure a maximally macrocycle-bound fraction (KD ~10 nM; ~100% bound) at 0.25 mg/mL HTT or HTT-HAP40 (~0.7 μM), the upper limit of macrocycle tested was 10 μM.
# (§2) 98 Supplementary Figure. 10. Thermal shift (ΔTm) induced by macrocycle binding. Melting
# (§3) 99 temperature of HTTQ54 (left) with HL5 or HL2 minus HTTQ54 with DMSO (46.5 °C), and (right)
# (§4) 100 HTTQ23-HAP40 with HD4, HL2, HL5, HHD2, HHD3, or HHL1 minus HTTQ23-HAP40 with DMSO
# (§5) 101 (51.0 °C). ΔTm significance was determined using an unpaired t-test with Welch correction,
# (§6) 102 comparing to the mean Tm of Q54 or Q23-HAP40 with DMSO; *P < 0.05, **P < 0.01, ***P <
# 103 0.001. […]
# [2] = biological target: T2, HTTQ23-HAP40 (Homo sapiens, UniProt P23610+P42858, INS38QQ); test: Thermal shift assay (DSF), HTTQ23-HAP40; format: binding; conditions: SYPRO Orange, 0.25 mg/mL protein, macrocycle up to 10 μM, 2.5% DMSO, n=3
# T2 construct: Full-length wildtype HTT with a polyQ tract of 23 glutamines; FLAG; made in house; host or cells: Sf9 insect cells (baculovirus)
# T2 sequence (P42858 with tags, fused parts or gaps INS38QQ): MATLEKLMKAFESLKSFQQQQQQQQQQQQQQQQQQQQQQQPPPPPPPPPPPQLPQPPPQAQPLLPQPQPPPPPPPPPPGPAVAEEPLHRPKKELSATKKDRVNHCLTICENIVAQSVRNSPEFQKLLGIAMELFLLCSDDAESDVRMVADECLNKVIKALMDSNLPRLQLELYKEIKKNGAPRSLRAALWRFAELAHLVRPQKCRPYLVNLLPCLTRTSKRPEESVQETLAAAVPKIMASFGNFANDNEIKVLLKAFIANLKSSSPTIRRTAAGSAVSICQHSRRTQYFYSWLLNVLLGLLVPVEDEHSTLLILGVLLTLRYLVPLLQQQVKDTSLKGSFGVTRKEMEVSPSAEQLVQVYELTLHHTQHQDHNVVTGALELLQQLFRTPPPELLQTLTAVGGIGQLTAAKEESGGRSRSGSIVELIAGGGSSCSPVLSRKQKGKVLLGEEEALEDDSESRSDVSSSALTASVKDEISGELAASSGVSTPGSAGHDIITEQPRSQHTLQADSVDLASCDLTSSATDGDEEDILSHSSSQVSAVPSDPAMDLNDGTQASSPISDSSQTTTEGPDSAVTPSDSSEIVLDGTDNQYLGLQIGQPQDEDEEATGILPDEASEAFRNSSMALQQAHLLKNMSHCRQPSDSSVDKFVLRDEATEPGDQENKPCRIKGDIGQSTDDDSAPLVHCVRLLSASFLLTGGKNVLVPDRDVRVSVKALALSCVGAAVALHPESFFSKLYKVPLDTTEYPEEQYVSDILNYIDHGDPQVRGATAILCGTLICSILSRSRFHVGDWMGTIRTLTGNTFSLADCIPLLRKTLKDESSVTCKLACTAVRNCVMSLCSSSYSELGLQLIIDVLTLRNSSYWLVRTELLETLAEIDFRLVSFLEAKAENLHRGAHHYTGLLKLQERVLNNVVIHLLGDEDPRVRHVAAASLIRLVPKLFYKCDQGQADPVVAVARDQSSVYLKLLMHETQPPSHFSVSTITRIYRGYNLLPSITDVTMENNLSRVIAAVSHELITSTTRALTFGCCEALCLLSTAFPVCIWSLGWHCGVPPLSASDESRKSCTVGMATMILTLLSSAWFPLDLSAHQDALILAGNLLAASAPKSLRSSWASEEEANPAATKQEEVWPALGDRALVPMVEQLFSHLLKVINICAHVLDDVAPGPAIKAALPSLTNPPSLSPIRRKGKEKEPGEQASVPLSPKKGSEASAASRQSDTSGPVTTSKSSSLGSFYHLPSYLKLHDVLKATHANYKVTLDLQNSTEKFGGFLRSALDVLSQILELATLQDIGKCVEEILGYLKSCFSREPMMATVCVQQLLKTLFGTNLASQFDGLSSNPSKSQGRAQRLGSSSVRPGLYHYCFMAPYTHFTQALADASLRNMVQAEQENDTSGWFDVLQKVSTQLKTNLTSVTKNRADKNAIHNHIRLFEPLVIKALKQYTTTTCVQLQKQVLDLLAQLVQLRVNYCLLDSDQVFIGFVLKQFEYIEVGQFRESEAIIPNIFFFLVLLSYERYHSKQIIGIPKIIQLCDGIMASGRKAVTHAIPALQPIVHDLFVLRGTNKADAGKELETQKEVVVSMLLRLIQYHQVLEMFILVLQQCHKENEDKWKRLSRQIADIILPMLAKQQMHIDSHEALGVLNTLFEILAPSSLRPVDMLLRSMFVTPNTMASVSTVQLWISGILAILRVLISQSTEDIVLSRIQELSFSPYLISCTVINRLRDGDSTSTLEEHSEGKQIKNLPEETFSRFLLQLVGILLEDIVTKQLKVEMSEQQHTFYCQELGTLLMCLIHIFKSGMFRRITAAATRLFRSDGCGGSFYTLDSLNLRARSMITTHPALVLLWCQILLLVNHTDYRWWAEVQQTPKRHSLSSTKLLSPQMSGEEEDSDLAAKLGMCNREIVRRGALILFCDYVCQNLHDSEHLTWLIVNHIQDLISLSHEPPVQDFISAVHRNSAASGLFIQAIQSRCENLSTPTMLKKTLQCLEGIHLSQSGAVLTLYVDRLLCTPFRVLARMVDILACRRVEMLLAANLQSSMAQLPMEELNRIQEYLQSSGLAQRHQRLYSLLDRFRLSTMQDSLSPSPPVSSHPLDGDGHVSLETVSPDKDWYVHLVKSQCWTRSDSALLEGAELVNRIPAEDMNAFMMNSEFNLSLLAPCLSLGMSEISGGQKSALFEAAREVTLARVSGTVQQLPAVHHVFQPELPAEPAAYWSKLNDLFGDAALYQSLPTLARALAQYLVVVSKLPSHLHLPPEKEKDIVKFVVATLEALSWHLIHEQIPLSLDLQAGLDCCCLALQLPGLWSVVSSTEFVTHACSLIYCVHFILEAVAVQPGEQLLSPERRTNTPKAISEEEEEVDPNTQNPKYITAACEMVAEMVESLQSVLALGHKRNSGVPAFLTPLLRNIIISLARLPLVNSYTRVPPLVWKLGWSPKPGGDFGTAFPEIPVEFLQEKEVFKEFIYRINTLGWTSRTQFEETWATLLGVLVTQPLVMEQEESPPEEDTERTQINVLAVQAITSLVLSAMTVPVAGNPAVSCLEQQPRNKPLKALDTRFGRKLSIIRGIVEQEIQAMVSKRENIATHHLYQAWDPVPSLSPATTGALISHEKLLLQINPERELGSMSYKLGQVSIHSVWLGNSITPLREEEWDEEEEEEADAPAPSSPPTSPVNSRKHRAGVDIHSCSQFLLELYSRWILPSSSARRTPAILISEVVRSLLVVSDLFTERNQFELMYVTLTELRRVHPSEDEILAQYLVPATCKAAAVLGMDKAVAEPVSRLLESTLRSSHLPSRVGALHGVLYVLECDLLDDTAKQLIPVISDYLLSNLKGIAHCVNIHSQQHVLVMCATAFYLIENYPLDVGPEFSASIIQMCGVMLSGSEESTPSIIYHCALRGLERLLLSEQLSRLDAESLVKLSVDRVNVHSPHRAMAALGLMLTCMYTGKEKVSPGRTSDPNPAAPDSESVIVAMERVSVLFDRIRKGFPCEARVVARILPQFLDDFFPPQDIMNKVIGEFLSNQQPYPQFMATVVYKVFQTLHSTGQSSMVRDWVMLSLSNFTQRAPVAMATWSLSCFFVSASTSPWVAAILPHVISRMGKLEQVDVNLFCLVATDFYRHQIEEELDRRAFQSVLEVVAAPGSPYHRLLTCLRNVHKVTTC
# T2 sequence (P23610 whole entry, stated change not applied): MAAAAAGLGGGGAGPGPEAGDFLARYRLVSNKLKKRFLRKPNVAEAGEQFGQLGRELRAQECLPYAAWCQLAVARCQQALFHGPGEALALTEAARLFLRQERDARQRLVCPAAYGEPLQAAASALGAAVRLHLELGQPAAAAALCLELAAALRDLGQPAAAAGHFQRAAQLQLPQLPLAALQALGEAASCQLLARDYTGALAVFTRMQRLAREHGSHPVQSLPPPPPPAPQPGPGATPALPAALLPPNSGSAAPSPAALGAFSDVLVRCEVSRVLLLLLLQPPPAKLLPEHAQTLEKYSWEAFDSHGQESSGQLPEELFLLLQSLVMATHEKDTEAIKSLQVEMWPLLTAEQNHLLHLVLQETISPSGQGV
# Method: as §1, §2, §3, §4, §5, §6
# 103 0.001. The summary table reports the ΔTm and exact P value at the highest concentration tested
# (1 picture or pasted object on this page, not shown here)
# [3] = test system: HTT; test: HL2 macrocycle pulldown from isogenic neuronal progenitor cells (NPCs), LC-MS/MS; format: binding, human; conditions: isogenic NPC lines Q30/Q19, Q45/Q19 and Q81/Q27
# Text: We extended our analysis to isogenic neuronal progenitor cells (NPCs), which more closely resemble the neuronal populations affected in HD, both functionally and in terms of gene expression profiles ([Ooi et al., 2019]). […] Thus, we compared HL2 protein enrichment profiles across isogenic NPC lines harboring non-expanded (Q30/Q19) and expanded CAG repeats (Q45/Q19 and Q81/Q27).
# Successful macrocycle-mediated pulldown was first confirmed by western blot in all NPC lines (Supplementary Figure 14a). […] HTT and HAP40 were the only proteins consistently overlapping across all three NPC lines (Supplementary Figure 14b). […]
# Cells were harvested by centrifugation at 1,500 rpm for 5 minutes, washed twice with PBS, and snap-frozen. […] Protein concentration was determined by BCA assay (Thermo Fisher Scientific, 23225), yielding approximately 4 mg of protein on average. […]
# All sample preparation, LC MS/MS data collection, and MS data searches were carried out at the SPARC BioCentre at The Hospital for Sick Children (Toronto, ON, Canada). […] Samples were analyzed by liquid chromatography tandem mass spectrometry (LC-MS/MS) using an EASY-nanoLC 1200 system with a 1 h analysis and an Orbitrap Fusion™ Lumos™ Tribrid™ Mass Spectrometer (Thermo Fisher Scientific). […]
smiles,measurement,setting,value
CC(C)C[C@@H]1NC(=O)[C@H](Cc2ccc(O)cc2)NC(=O)[C@H](CCCNC(=N)N)NC(=O)[C@H](C)NC(=O)[C@H]([C@@H](C)O)NC(=O)[C@H](Cc2ccc(O)cc2)NC(=O)CSC[C@@H](C(N)=O)NC(=O)[C@H](CCCCN)NC(=O)[C@H](Cc2ccc(O)cc2)NC(=O)[C@H](Cc2c[nH]cn2)NC(=O)[C@H](CC(C)C)NC(=O)[C@H]([C@@H](C)O)NC(=O)CNC(=O)[C@H](CC(C)C)NC(=O)[C@H]([C@@H](C)O)NC1=O [HL2] ({CH2CO}-YTARYLTLGTLHYKC-NH2; thioether N-15; C-terminus assumed),Thermal shift (ΔTm) of HTTQ54 induced by macrocycle,[1],No significant thermal effects
same,Thermal shift (ΔTm) of HTTQ23-HAP40 induced by macrocycle,[2],No significant thermal effects
same,Enrichment of HTT in HL2 pulldown from NPC lines by LC-MS/MS,[3],most abundantly enriched protein across all lines
